US20170319519A1, “COMBINATION FOR THE TREATMENT OF CONDITIONS INVOLVING MUSCULAR PAIN” (Spherium Biomed S.L., priority 2014, published 2017)

System: patients with temporomandibular pain
Experiment: Global pain reduction in TMJ patients, visual analogic scale (VAS)
Type: in vivo
Settings: n=3 per group, treated 3 times over 24 h, VAS 8 hours after the last administration
Method: In order to test the role of vitamin C in the formulation 7 groups of patients (n=3) with temporomandibular pain were administered the following combinations:
Patients were treated 3 times over 24 h, and were asked to evaluate their pain (localized and general) 8 hours after the last administration using a visual analogic scale (VAS) from 1 to 10, being 10 the most positive situation. The results of the two assessments were summed up to obtain the global pain score.

O=C1O[C@H]([C@@H](O)CO)C(O)=C1O [Group 7, Vitamin C]
effect on reduction of (global) pain, conclusions in words: worst values in all parameters
effect on reduction of (global) pain, conclusions in words (listed as Vit C): no effect
